The values that follow come from US20080063719A1, “Pharmaceutical Compositions” (Vectura Limited, priority 2004, published 2008).

What all share (type): physicochemical
Data set [1] in a line: DVS (dynamic vapour sorption) moisture sorption analysis. The text has this:
100% amorphous glycopyrrolate was obtained by lyophilisation.

Data set [2] can be described thus: Sympatec sizing of micronised glycopyrrolate batches, after micronisation and on storage. The note with it: for Sympatec sizing d10 / Sympatec sizing d50 / Sympatec sizing d90: following micronisation. The text has this:
(§1) Batches of micronised glycopyrrolate were obtained and, following sealed storage for several weeks, the physical changes of the material from fine cohesive powders to solid agglomerates were observed.
(§2) The following section summarises the tests conducted on reported batches of glycopyrrolate received following micronisation: […]

Data set [3] can be described thus: Observation of bulk powder after sealed storage. Particulars: sealed storage for several weeks.
Text: as §1, §2

Data set [4] can be described thus: Loss on drying and water activity of micronised batches.
Text: as §2

A short description of data set [5]: MSLI test of formulations made from micronisation trial batches, Example 7. Particulars: 20 μg dose in 25 mg powder, 0.15% magnesium stearate, gelatin capsules. As for the experimental part:
(§3) The effect of conditioning on micronised glycopyrrolate was investigated. An initial batch of glycopyrrolate ‘A’ was micronised at 9.8 bar with feed rate of 0.2 kg/hour. This material was then conditioned on a tray at 25° C./60% RH, with or without agitation/turning. Each of these powders was sized by Sympatec. The powders were then formulated using the method outlined in Example 4, as 20 μg dose in 25 mg powder with 0.15% magnesium stearate and loaded into gelatin capsules. The fine particle fraction was assessed by firing the capsules from a Miat MonoHaler device into a multi stage liquid impinger, using the method defined in the European Pharmacopoeia 4th Edition 2002. The fine particle fraction was defined here as the mass fraction smaller than 5 μm relative to the nominal dose.
as §3, with “A second” for “The effect of conditioning on micronised glycopyrrolate was investigated. An initial”, “‘B’” for “‘A’”, “0.3” for “0.2”, “powder” for “material was then conditioned on a tray at 25° C./60% RH, with or without agitation/turning. Each of these powders”, “powder was” for “powders were”
as §3, with “A third” for “The effect of conditioning on micronised glycopyrrolate was investigated. An initial”, “glycopyrtolate ‘C’” for “glycopyrrolate ‘A’”, “0.4” for “0.2”
as §3, with “A fourth” for “The effect of conditioning on micronised glycopyrrolate was investigated. An initial”, “‘D’” for “‘A’”, “8.8” for “9.8”, “0.4” for “0.2”, “powder” for “material was then conditioned on a tray at 25° C./60% RH, with or without agitation/turning. Each of these powders”, “powder was” for “powders were”
as §3, with “A fifth” for “The effect of conditioning on micronised glycopyrrolate was investigated. An initial”, “‘E’” for “‘A’”, “7.8” for “9.8”, “0.4” for “0.2”
(§4) Batches A1, C1 and E1 were not conditioned. Batches A2, C2 and E2 were conditioned at 25° C./60% RH and batches A3, C3 and E3 were conditioned at 25° C./60% RH with turning.

The nature of data set [6]: Particle sizing of micronised and conditioned glycopyrrolate batches, Example 7. The note with it: micronised drug powder. As for the experimental part:
as §3
as §3, with “A second” for “The effect of conditioning on micronised glycopyrrolate was investigated. An initial”, “‘B’” for “‘A’”, “0.3” for “0.2”, “powder” for “material was then conditioned on a tray at 25° C./60% RH, with or without agitation/turning. Each of these powders”, “powder was” for “powders were”
as §3, with “A third” for “The effect of conditioning on micronised glycopyrrolate was investigated. An initial”, “glycopyrtolate ‘C’” for “glycopyrrolate ‘A’”, “0.4” for “0.2”
as §3, with “A fourth” for “The effect of conditioning on micronised glycopyrrolate was investigated. An initial”, “‘D’” for “‘A’”, “8.8” for “9.8”, “0.4” for “0.2”, “powder” for “material was then conditioned on a tray at 25° C./60% RH, with or without agitation/turning. Each of these powders”, “powder was” for “powders were”
as §3, with “A fifth” for “The effect of conditioning on micronised glycopyrrolate was investigated. An initial”, “‘E’” for “‘A’”, “7.8” for “9.8”, “0.4” for “0.2”
as §4

On to `C[N+]1(C)CCC(OC(=O)C(O)(c2ccccc2)C2CCCC2)C1.[Br-]` (stereo not drawn) [Batch A], for which the “DVS finding (crystalline or amorphous material)” value (“DVS finding” below) in data set [1] is “crystalline material”. In data set [2], the “Sympatec sizing d10” value amounted to 0.7 μm, the “Sympatec sizing d50” value is 1.8 μm and the “Sympatec sizing d90” value stood at 3.6 μm. For the same molecule, the “state of bulk powder on storage” value in data set [3] is listed as “soft lumps”. This molecule gave a Loss on drying in data set [4] of 0.7%.

Turning to `C[N+]1(C)CCC(OC(=O)C(O)(c2ccccc2)C2CCCC2)C1.[Br-]` (stereo not drawn) [Batch B], the “DVS finding” value in data set [1] is on record as “amorphous material was present”. For the same molecule, in data set [2], the “Sympatec sizing d10” value is given as 1.0 μm, the “Sympatec sizing d50” value came out at 2.4 μm and the “Sympatec sizing d90” value is 4.8 μm. For the same molecule, in data set [3], the “state of bulk powder on storage” value was “large hard lumps”. In data set [4], the Loss on drying was found to be 0.6% and the Water activity is reported as 54 % RH.

For `C[N+]1(C)CCC(OC(=O)C(O)(c2ccccc2)C2CCCC2)C1.[Br-]` (stereo not drawn) [Batch C], the “DVS finding” value in data set [1] is recorded as “amorphous material was present”. Also, in data set [2], the “Sympatec sizing d10” value was found to be 0.8 μm, the “Sympatec sizing d50” value was determined as 2.3 μm and the “Sympatec sizing d90” value is on record as 4.8 μm. The “d50 on repeated particle sizing” value in data set [2] (on storage) came to 51 μm. Further, the “state of bulk powder on storage” value in data set [3] is “large hard lumps”. This molecule also gave a Loss on drying in data set [4] of 0.4%.

Turning to `C[N+]1(C)CCC(OC(=O)C(O)(c2ccccc2)C2CCCC2)C1.[Br-]` (stereo not drawn) [Formulation A1], in data set [5] (T = 0), the “% FPD” value is 34.7% and the MMAD was 2.8 μm. In addition, in data set [5] (T = 2 wks), the “% FPD” value stood at 30.5% and the MMAD was 3.2 μm. In data set [6], this molecule registered a D10 of 0.81 μm, a D50 of 1.95 μm and a D90 of 3.68 μm.

Regarding `C[N+]1(C)CCC(OC(=O)C(O)(c2ccccc2)C2CCCC2)C1.[Br-]` (stereo not drawn) [Formulation A2], in data set [6], the D10 came out at 1.22 μm, the D50 is recorded as 3.89 μm and the D90 is recorded as 10.02 μm.

As to `C[N+]1(C)CCC(OC(=O)C(O)(c2ccccc2)C2CCCC2)C1.[Br-]` (stereo not drawn) [Formulation A3], in data set [5] (T = 0), the “% FPD” value worked out at 34.5% and the MMAD worked out at 2.8 μm. Moreover, in data set [5] (T = 2 wks), the “% FPD” value is reported as 31.5% and the MMAD is given as 3.1 μm. In data set [6], this molecule displayed a D10 of 1.24 μm, a D50 of 4.03 μm and a D90 of 9.78 μm.

For the molecule `C[N+]1(C)CCC(OC(=O)C(O)(c2ccccc2)C2CCCC2)C1.[Br-]` (stereo not drawn) [Formulation C1], in data set [5] (T = 0), the “% FPD” value turned out to be 39.9% and the MMAD was 3.9 μm. Further, in data set [5] (T = 2 wks), the “% FPD” value is on record as 35.5% and the MMAD was 4.0 μm. In data set [6], this molecule returned a D10 of 0.95 μm, a D50 of 2.41 μm and a D90 of 4.83 μm.

For `C[N+]1(C)CCC(OC(=O)C(O)(c2ccccc2)C2CCCC2)C1.[Br-]` (stereo not drawn) [Formulation C2], in data set [5] (T = 0), the “% FPD” value is reported as 39.2% and the MMAD came to 3.3 μm. In addition, in data set [5] (T = 2 wks), the “% FPD” value amounted to 34.0% and the MMAD was determined as 3.6 μm. In data set [6], the D10 is on record as 1.24 μm, the D50 worked out at 3.76 μm and the D90 amounted to 7.84 μm.

Turning to `C[N+]1(C)CCC(OC(=O)C(O)(c2ccccc2)C2CCCC2)C1.[Br-]` (stereo not drawn) [Formulation C3], in data set [5] (T = 0), the “% FPD” value came to 39.9% and the MMAD is listed as 3.2 μm. For the same molecule, in data set [5] (T = 2 wks), the “% FPD” value is 37.9% and the MMAD was 3.4 μm. In data set [6], this molecule showed a D10 of 1.24 μm, a D50 of 3.97 μm and a D90 of 8.23 μm.

For the molecule `C[N+]1(C)CCC(OC(=O)C(O)(c2ccccc2)C2CCCC2)C1.[Br-]` (stereo not drawn) [Formulation E1], in data set [5] (T = 0), the “% FPD” value is 39.9% and the MMAD is 3.3 μm. In data set [5] (T = 2 wks), the “% FPD” value was 33.3% and the MMAD was 3.4 μm. In data set [6], the D10 is listed as 1.01 μm, the D50 came to 2.47 μm and the D90 is given as 4.88 μm.

As for `C[N+]1(C)CCC(OC(=O)C(O)(c2ccccc2)C2CCCC2)C1.[Br-]` (stereo not drawn) [Formulation E2], in data set [6], the D10 stood at 1.28 μm, the D50 turned out to be 3.61 μm and the D90 was determined as 7.08 μm.

For `C[N+]1(C)CCC(OC(=O)C(O)(c2ccccc2)C2CCCC2)C1.[Br-]` (stereo not drawn) [Formulation E3], in data set [5] (T = 0), the “% FPD” value is on record as 38.7% and the MMAD was 3.2 μm. Besides, in data set [5] (T = 2 wks), the “% FPD” value amounted to 32.7% and the MMAD was 3.7 μm. Also, in data set [6], the D10 is given as 1.23 μm, the D50 came out at 3.79 μm and the D90 stood at 7.85 μm.

Turning to `C[N+]1(C)CCC(OC(=O)C(O)(c2ccccc2)C2CCCC2)C1.[Br-]` (stereo not drawn) [Remicronised Batch C], in data set [2], the “Sympatec sizing d10” value was 1.0 μm, the “Sympatec sizing d50” value was 2.4 μm and the “Sympatec sizing d90” value came out at 4.5 μm. Moreover, the “state of bulk powder on storage” value in data set [3] is on record as “only soft lumps”. The molecule also registered a Loss on drying in data set [4] of 0.5%.

On to `C[N+]1(C)CCC(OC(=O)C(O)(c2ccccc2)C2CCCC2)C1.[Br-]` (stereo not drawn) [amorphous glycopyrrolate], for which the hygroscopicity entry in data set [1] (obtained by lyophilisation, confirmed by DVS at RH>0%) is recorded as “very hygroscopic”.
